Tests used:
Canavalia ensiformis = experiment: Percent inhibition against alpha-D-mannosidase from jack bean at 1 mM concentration
Clostridium perfringens = experiment: Percent inhibition against neuraminidase from Type X, Clostridium perfringens at 1 mM concentration
[1] = substrate: Cc1cc(=O)oc2cc(OC3O[C@H](C)[C@H](O)[C@H](O)[C@H]3O)ccc12; experiment: The Michaelis-Menten constant against alpha-L-fucosidase from solubilized human neutrophils was determined

| Molecule | inhibition (Canavalia ensiformis) | inhibition (Clostridium perfringens) | Km [1] |
| --- | --- | --- | --- |
| C[C@@H]1NC[C@@H](O)[C@H](O)[C@@H]1O | 83% | 50% |  |
| CC1NC(CO)[C@@H](O)C(O)[C@@H]1O (single isomer, unassigned) | 0% | 0% |  |
| Plasma alpha-L-fucosidase (Homo sapiens), Q9BTY2 (protein) MRPQELPRLAFPLLLLLLLLLPPPPCPAHSATRFDPTWESLDARQLPAWFDQAKFGIFIHWGVFSVPSFGSEWFWWYWQKEKIPKYVEFMKDNYPPSFKYEDFGPLFTAKFFNANQWADIFQASGAKYIVLTSKHHEGFTLWGSEYSWNWNAIDEGPKRDIVKELEVAIRNRTDLRFGLYYSLFEWFHPLFLEDESSSFHKRQFPVSKTLPELYELVNNYQPEVLWSDGDGGAPDQYWNSTGFLAWLYNESPVRGTVVTNDRWGAGSICKHGGFYTCSDRYNPGHLLPHKWENCMTIDKLSWGYRREAGISDYLTIEELVKQLVETVSCGGNLLMNIGPTLDGTISVVFEERLRQMGSWLKVNGEAIYETHTWRSQNDTVTPDVWYTSKPKEKLVYAIFLKWPTSGQLFLGHPKAILGATEVKLLGHGQPLNWISLEQNGIMVELPQLTIHQMPCKWGWALALTNVI |  |  | 250 µM |

Reference: ChEMBL document CHEMBL1150025, “Synthesis of and glycosidase inhibition by -l-homofuconojirimycin” (Bioorg Med Chem Lett, 1993)
